The data set concerns the target ABCB1 (Homo sapiens, UniProt P08183). Type of data set: biochemical.

Sequence of ABCB1 (P08183 whole entry): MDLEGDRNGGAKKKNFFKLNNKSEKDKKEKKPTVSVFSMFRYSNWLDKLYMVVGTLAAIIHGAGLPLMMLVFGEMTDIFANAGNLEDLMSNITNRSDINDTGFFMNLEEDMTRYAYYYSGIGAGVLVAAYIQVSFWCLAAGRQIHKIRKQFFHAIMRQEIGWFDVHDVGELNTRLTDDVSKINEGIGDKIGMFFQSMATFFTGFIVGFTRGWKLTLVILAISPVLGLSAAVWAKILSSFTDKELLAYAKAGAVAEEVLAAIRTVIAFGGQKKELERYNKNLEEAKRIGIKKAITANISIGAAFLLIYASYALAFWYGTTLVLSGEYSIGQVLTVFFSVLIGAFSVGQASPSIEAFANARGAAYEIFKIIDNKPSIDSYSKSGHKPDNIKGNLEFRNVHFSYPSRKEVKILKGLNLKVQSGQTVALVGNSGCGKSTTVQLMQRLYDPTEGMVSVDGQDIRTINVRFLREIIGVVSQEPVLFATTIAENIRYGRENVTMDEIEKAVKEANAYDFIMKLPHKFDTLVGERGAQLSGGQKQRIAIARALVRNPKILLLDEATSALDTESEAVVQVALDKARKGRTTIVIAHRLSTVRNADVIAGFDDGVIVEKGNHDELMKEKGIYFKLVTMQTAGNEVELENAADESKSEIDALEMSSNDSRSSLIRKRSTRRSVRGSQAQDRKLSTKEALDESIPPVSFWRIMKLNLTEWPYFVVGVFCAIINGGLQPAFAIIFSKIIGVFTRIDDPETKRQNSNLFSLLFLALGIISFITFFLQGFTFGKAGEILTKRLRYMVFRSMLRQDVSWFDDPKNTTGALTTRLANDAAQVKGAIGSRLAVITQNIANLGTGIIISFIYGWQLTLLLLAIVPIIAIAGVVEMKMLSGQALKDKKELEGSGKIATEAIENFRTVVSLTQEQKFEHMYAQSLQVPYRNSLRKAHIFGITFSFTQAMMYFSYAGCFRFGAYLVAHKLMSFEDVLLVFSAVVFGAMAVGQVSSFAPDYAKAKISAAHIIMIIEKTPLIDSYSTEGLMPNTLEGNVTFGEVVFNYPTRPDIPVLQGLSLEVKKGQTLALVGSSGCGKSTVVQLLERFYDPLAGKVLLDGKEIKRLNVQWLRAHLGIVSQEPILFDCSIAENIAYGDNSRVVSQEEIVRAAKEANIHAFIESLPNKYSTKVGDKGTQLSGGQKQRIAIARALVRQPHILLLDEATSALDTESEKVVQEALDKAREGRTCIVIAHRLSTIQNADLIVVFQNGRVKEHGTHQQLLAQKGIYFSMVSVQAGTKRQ

Take `CCN(CC)CCCCNc1ncc2cc(-c3cc(OC)cc(OC)c3)c(NC(=O)NC(C)(C)C)nc2n1` [PD173074]: the “vanadate-sensitive ATPase stimulation in crude membranes of High-five cells expr” value fell in the range of 2.5 to 5 µM.

The values are drawn from PMC8366681 (Cancer chemotherapy and pharmacology, 2013).
